Experimental data reported in patent US11161856B2 (H. Lundbeck A/S, priority 2017, dated 2021).

Experiments:
[1] = target: T1, MGLL (Mus musculus, UniProt O35678); test: In vitro competitive activity-based protein profiling, mouse brain proteome (MGLL); assay type: biochemical; parameters: IC50 MGLL Brain (Mouse, μM): scale not given here; conditions: for % Inh MGLL Brain (Mouse, μM): concentration not given (μM)
T1 construct: Brain; from tissue; host or cells: mouse brain proteome
T1 sequence (O35678 1-303): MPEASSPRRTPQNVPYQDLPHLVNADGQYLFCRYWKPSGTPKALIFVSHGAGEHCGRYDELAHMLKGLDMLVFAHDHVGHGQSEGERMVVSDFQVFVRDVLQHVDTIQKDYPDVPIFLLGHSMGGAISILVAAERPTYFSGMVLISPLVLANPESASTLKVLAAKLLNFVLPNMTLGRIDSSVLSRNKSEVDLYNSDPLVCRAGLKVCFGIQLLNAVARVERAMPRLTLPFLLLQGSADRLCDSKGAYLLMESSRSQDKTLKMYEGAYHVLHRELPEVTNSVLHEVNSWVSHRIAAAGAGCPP

[2] = target: T2, ABHD6 (Mus musculus, UniProt Q8R2Y0); test: In vitro competitive activity-based protein profiling, mouse brain proteome (ABHD6); assay type: biochemical; conditions: mouse brain proteome; concentration not given (μM)
T2 construct: Brain; from tissue; host or cells: mouse brain proteome
T2 sequence (Q8R2Y0 1-336): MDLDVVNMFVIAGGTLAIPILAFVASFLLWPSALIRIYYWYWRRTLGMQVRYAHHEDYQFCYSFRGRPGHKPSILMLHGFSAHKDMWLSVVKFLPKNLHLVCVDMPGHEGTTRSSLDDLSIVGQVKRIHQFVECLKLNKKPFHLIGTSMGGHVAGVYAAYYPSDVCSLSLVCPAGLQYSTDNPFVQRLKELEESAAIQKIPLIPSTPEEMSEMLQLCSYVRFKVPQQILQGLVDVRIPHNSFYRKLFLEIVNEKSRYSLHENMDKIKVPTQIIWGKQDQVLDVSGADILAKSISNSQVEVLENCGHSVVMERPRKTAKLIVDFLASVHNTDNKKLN
Procedure: [The source words this procedure for another target and reports this target under the same test.] In Vitro Competitive Activity-Based Protein Profiling.
Proteomes (human prefrontal cortex or cell membrane fractions) (50 μL, 1.0 mg/mL total protein concentration) were preincubated with varying concentrations of inhibitors at 37° C. After 30 min, FP-Rh or HT-01 (1.0 μL, 50 μM in DMSO) was added and the mixture was incubated for another 30 min at room temperature. Reactions were quenched with SDS loading buffer (15 μL-4×) and run on SDS-PAGE.

SMILES | % Inh MGLL Brain (Mouse, μM) [1] | % Inh ABHD6 Brain (Mouse, μM) [2] | IC50 MGLL Brain (Mouse, μM) [1]
CC(=O)N1CC2CN(c3cc(Cl)ccc3CN3CCN(C(=O)OC(C(F)(F)F)C(F)(F)F)CC3)CC2C1 (stereo not shown) [Example 202, 1,1,1,3,3,3-Hexafluoropropan-2-yl 4-(2-(5-acetylhexahydropyrrolo[3,4-c]pyrrol-2(lH)-yl)-4-chlorobenzyl)piperazine-1 - carboxylate] | ### (### is ≥75%) | ## (## is between 25 and 75%) | –
O=C(OC(C(F)(F)F)C(F)(F)F)N1CCC2(CCN(Cc3ccc(C(F)(F)F)cc3N3CCCCC3)CC2)C1 [Example 187, 1,1,1,3,3,3-Hexafluoropropan-2-yl 8-(2-(piperidin-1-yl)-4-(trifluoromethyl)benzyl)-2,8-diazaspiro[4.5]decane-2-carboxylate] | ### (### is ≥75%) | # (# is ≤25%) | –
Cc1ccc(CN2CC3(CCN(C(=O)OC(C(F)(F)F)C(F)(F)F)CC3)C2)cc1 [Example 84, 1,1,1,3,3,3-Hexafluoropropan-2-yl 2-(4-methylbenzyl)-2,7-diazaspiro[3.5]nonane-7-carboxylate] | ### (### is ≥75%) | ### (### is ≥75%) | –
CS(=O)(=O)N1CC2(CCN(c3cc(Cl)cc(CN4CCCC45CN(C(=O)OC(C(F)(F)F)C(F)(F)F)C5)c3)CC2)C1 [Example 240, 1,1,1,3,3,3-Hexafluoropropan-2-yl 5-(3-chloro-5-(2-(methylsulfonyl)-2,7-diazaspiro[3.5]nonan-7-yl)benzyl)-2,5-diazaspiro[3.4]octane-2-carboxylate] | ### (### is ≥75%) | ### (### is ≥75%) | –
CC(=O)N1CCC2(CC1)CCN(c1cc(Cl)ccc1CN1CCN(C(=O)OC(C(F)(F)F)C(F)(F)F)CC1)C2 [Example 29, 1,1,1,3,3,3-Hexafluoropropan-2-yl 4-(2-(8-acetyl-2,8-diazaspiro[4.5]decan-2-yl)-4-chlorobenzyl)piperazine-1-carboxylate] | ### (### is ≥75%) | # (# is ≤25%) | * * *
Cc1cc(N2CCOCC2)ccc1CN1CC2(CCN(C(=O)OC(C(F)(F)F)C(F)(F)F)CC2)C1 [Example 82, 1,1,1,3,3,3-Hexafluoropropan-2-yl 2-(2-methyl-4-morpholinobenzyl)-2,7-diazaspiro[3.5]nonane-7-carboxylate] | ### (### is ≥75%) | ### (### is ≥75%) | –
CC(=O)N1CCCc2cccc(CN3CCC4(CC3)CCN(C(=O)OC(C(F)(F)F)C(F)(F)F)C4)c21 [Example 193, 1,1,1,3,3,3-Hexafluoropropan-2-yl 8-((1-acetyl-1,2,3,4-tetrahydroquinolin-8-yl)methyl)-2,8-diazaspiro[4.5]decane-2-carboxylate] | ## (## is between 25 and 75%) | # (# is ≤25%) | –
Cc1cc(-c2ccccc2)ccc1CN1CC2(CCN(C(=O)OC(C(F)(F)F)C(F)(F)F)CC2)C1 [Example 68, 1,1,1,3,3,3-Hexafluoropropan-2-yl 2-((3-methyl-[1,1'-biphenyl]-4-yl)methyl)-2,7-diazaspiro[3,5]nonane-7-carboxylate] | ### (### is ≥75%) | ### (### is ≥75%) | –
CN1CCC2(CCN(c3cc(Cl)ccc3CN3CCN(C(=O)OC(C(F)(F)F)C(F)(F)F)CC3)CC2)C1 [Example 177, 1,1,1,3,3,3-Hexafluoropropan-2-yl 4-(4-chloro-2-(2-methyl-2,8-diazaspiro[4.5]decan-8-yl)benzyl)piperazine-1-carboxylate] | ### (### is ≥75%) | # (# is ≤25%) | –
O=C(OC(C(F)(F)F)C(F)(F)F)N1CCC2(CC1)CN(Cc1ccc(CN3CCOCC3)cc1)C2 [Example 73, 1,1,1,3,3,3-Hexafluoropropan-2-yl 2-(4-(morpholinomethyl)benzyl)-2,7-diazaspiro[3.5]nonane-7-carboxylate] | ### (### is ≥75%) | ### (### is ≥75%) | –

Further lines, results first:

% Inh MGLL Brain (Mouse, μM) [1] | % Inh ABHD6 Brain (Mouse, μM) [2] | IC50 MGLL Brain (Mouse, μM) [1] | SMILES
### (### is ≥75%) | # (# is ≤25%) | – | CC(=O)N1CCC2(CC1)CN(c1cc(Cl)ccc1CN1CCN(C(=O)OC(C(F)(F)F)C(F)(F)F)CC1)C2 [Example 198, 1.1.1,3,3,3-Hexafluoropropan-2-yl 4-(2-(7-acetyl-2,7-diazaspiro[3.5]nonan-2-yl)-4-chlorobenzyl)piperazine-1-carboxylate]
### (### is ≥75%) | ## (## is between 25 and 75%) | – | CS(=O)(=O)N1CCC2(CCN(c3cc(C(F)(F)F)ccc3CN3CCC4(CCN(C(=O)OC(C(F)(F)F)C(F)(F)F)C4)C3)CC2)C1 (stereo not shown) [Example 242, 1,1,1,3,3,3-Hexafluoropropan-2-yl 7-(2-(2-(methylsulfonyl)-2,8-diazaspiro[4.5]decan-8-yl)-4-(trifluoromethyl)benzyl)-2,7-diazaspiro[4.4]nonane-2-carboxylate]
### (### is ≥75%) | ### (### is ≥75%) | – | O=C(OC(C(F)(F)F)C(F)(F)F)N1CC2(CCN(Cc3ccc(C(F)(F)F)cc3N3CCOCC3)CC2)C1 [Example 40, 1,1,1,3,3,3-Hexafluoropropan-2-yl 7-(2-morpholino-4-(triiluoromethyl)benzyl)-2,7-diazaspiro[3.5]nonane-2-carboxylate]
### (### is ≥75%) | ## (## is between 25 and 75%) | – | O=C(OC(C(F)(F)F)C(F)(F)F)N1CCC2(CC1)CN(Cc1ccc(Cl)cc1N1CCCCC1)C2 [Example 38, 1,1,1,3,33-Hexafluoropropan-2-yl 2-(4-chloro-2-(piperidin-1-yl)benzyl)-2,7-diazaspiro[3.5]nonane-7-carboxylate]
### (### is ≥75%) | ### (### is ≥75%) | – | CS(=O)(=O)N1CCN(c2cccc(C(F)(F)F)c2CN2CC3(CCN(C(=O)OC(C(F)(F)F)C(F)(F)F)CC3)C2)CC1 [Example 53, 1,1,1,3,3,3-Hexafluoropropan-2-yl 2-(2-(4-(methylsulfonyl)piperazin-1-yl)-6-(trifluoromethyl)benzyl)-2,7-diazaspiro[3.5]nonane-7-carboxylate]
### (### is ≥75%) | # (# is ≤25%) | – | CC(=O)N1CCC2(CC1)CCN(c1cc(C(F)(F)F)ccc1CN1CCN(C(=O)OC(C(F)(F)F)C(F)(F)F)CC1)C2 [Example 197, 1.1.1,3,3.3-Hexafluoropropan-2-yl 4-(2-(8-acetyl-2,8-diazaspiro[4.5]decan-2-yl)-4-(trifluoromethyl)benzyl)pipera zine-l-carboxylate]
### (### is ≥75%) | # (# is ≤25%) | – | CC(=O)N1CCC2(CC1)CN(c1cc(C(F)(F)F)ccc1CN1CCN(C(=O)OC(C(F)(F)F)C(F)(F)F)CC1)C2 [Example 199, 1.1,1.3.3,3-Hexafluoropropan-2-yl 4-(2-(7-acetyl-2,7-diazaspiro[3.5]nonan-2-yl)-4-(trifluoromethyl)benzyl)pipera zine-l-carboxylate]
### (### is ≥75%) | ### (### is ≥75%) | – | O=C(OC(C(F)(F)F)C(F)(F)F)N1CCC2(CC1)CN(Cc1c(N3CCC(F)CC3)cccc1C(F)(F)F)C2 [Example 51, 1,1,1,3,3,3-Hexafluoropropan-2-yl 2-(2-(4-fluoropiperidin-1-yl)-6-(trifluoromethyl)benzyl)-2,7-diazaspiro[3,5]nonane-7-carboxylate]
### (### is ≥75%) | ### (### is ≥75%) | – | O=C(OC(C(F)(F)F)C(F)(F)F)N1CCC2(CC1)CN(Cc1c(Cl)cccc1N1CCCC1)C2 [Example 42, 1,1,1,3,3,3-Hexafluoropropan-2-yl 2-(2-chloro-6-(pyrrolidin-1-yl)benzyl)-2,7-diazaspiro[3.5]nonane-7-carboxylate]
### (### is ≥75%) | ## (## is between 25 and 75%) | – | CS(=O)(=O)N1CCC2(CCN(c3cc(CN4CCCC45CN(C(=O)OC(C(F)(F)F)C(F)(F)F)C5)cc(C(F)(F)F)c3)CC2)C1 [Example 233, 1,1,1,3,3,3-Hexafluoropropan-2-yl 5-(3-(2-(methylsulfonyl)-2,8-diazaspiro[4.5]decan-8-yl)-5-(trifluoromethyl)benzyl)-2,5-diazaspiro[3.4]octane-2-carboxylate]
### (### is ≥75%) | # (# is ≤25%) | – | CS(=O)(=O)N1CC2(CCN(c3cc(C(F)(F)F)ccc3CN3CCN(C(=O)OC(C(F)(F)F)C(F)(F)F)CC3)C2)C1 [Example 186, 1,1,1,3,3,3-Hexafluoropropan-2-yl 4-(2-(2-(methylsulfonyl)-2,6-diazaspiro[3,4]octan-6-yl)-4-(trifluoromethyl)benzyl) piperazine-1-carboxylate]
